Patent publication US7981876B2, “Polymorphic and amorphous salt forms of squalamine dilactate” (priority 2005, dated 2011)

Tests used:
[1] = Heat stress stability at 70° C. for three days, HPLC with ELSD detection; type: physicochemical
Description: Samples of amorphous squalamine dilactate and squalamine dilactate recrystallized from ethanol as described in Example 5 were placed in scintillation vials and heated in an oven at 70° C. for three days. A portion of each heat stressed sample was then analyzed by HPLC with ELSD detection and the results compared with the HPLC analysis of unstressed material.

[2] = system: tails of CD-1®BR mice; test: Local irritancy of 5-day repeated intravenous injections of squalamine salt forms in mice; type: in vivo
Source text: A Study of Local Irritancy of 5-Day Repeated Intravenous Injections of Different Salt Forms (Ditrifluoroacetate, Dilactate, Digluconate, Diacetate) of MSI-1256 (Squalamine) in Mice
Objective: To determine the local irritancy of 5-day repeated daily intravenous doses of squalamine salt forms in tails of CD-1®BR mice.
Material and Methods: (Animals): Forty-eight male CD-1®BR mice (Charles River Lab). Mean body weight at study initiation was 20.6 gm. (Housing Environment): Mice were housed as groups (maximum 10 mice/box) in plastic mouse boxes with hardwood chip bedding and wire lids. They had access to food (Purina Mouse Chow) and water in bottles ad lib. The boxes were housed in isolator racks that were supplied with one-pass through filtered room air. The room in which the animals were housed was on a 12-hour on/12-hour off light cycle and had controlled temperature (range: 67-76° F.) and humidity (range: 40-70% relative humidity).
Solution prep: A 0.36 mg/mL solution of squalamine ditrifluoroacetate salt (equivalent to 0.25 mg/mL squalamine ditrifluroacetate active moiety) was prepared in D5W. A 0.31 mg/mL solution of squalamine diacetate salt (equivalent to 0.25 mg/mL squalamine diacetate active moiety) was prepared in D5W. A 0.33 mg/mL solution of squalamine dilactate salt (equivalent to 0.25 mg/mL squalamine dilactate active moiety) was prepared in D5W. A 0.45 mg/mL solution of squalamine digluconate salt (equivalent to 0.25 mg/mL squalamine digluconate active moiety) was prepared in D5W. A 1.0 mg/mL solution of magainin-2-amide (positive control) was prepared in D5W. Protocol: Mice were randomly assigned to six groups (8 mice/group) and received daily intravenous (i.v.) injections of solutions of D5W or squalamine salts in the tail vein for five days (study days 0, 1, 2, 3, and 4). […] One group of eight mice received test article magainin-2-amide (10 mg/kg/day; 10 mL/kg/day of a 1 mg/mL solution), which was previously determined to be local vein irritant, as a positive control. Mice were not injected with test article if severity of bruising or swelling (edema) warranted the omission of the injection. Survival was monitored and clinical signs were observed daily for five days of administration of squalamine salts and four days after the last dose (Study Day 8). Clinical signs of irritancy, edema, and bruising were made on days 1, 2, 3, and 4 approximately 24-hours after each injection and immediately prior to that day's injection. The pHs of the solutions of all test articles except magainin-2-amide were checked on Study Day 3. (The same solutions were used throughout the study so a similar pH on all study days may be assumed).

[3] = Accelerated stability study (temperature-based, four weeks) of four salt forms, reversed-phase HPLC of o-phthaldialdehyde derivatized samples; type: physicochemical
Description: An accelerated stability study (temperature-based) lasting four weeks was performed on squalamine in four different salt forms. The four salt forms were: dihydrochloride, diacetate, dilactate and D-digluconate. The samples were subjected to temperatures of 40° C., 60° C. and 80° C. The following table summarizes the results of % purity of main peak, squalamine, based on total integrated area. The analysis was performed using reversed-phase HPLC of o-phthaldialdehyde derivatized samples.

[4] = Heat Stressed, 70° C. for three days

% purity of main peak, squalamine, based on total integrated area ([3]; 4w 40° C.) [%] | % purity of main peak, squalamine, based on total integrated area ([3]; 4w 60° C.) [%] | % purity of main peak, squalamine, based on total integrated area ([3]; 4w 80° C.) [%] | % purity of main peak, squalamine, based on total integrated area ([3]; T = 0) [%] | Compound | necrotic mouse tail (mice affected/group) ([2]; mouse, in vivo) | also measured
 |  |  |  | CC(C)[C@@H](CC[C@@H](C)[C@H]1CC[C@H]2[C@@H]3[C@H](O)C[C@H]4C[C@@H](NCCCNCCCCN)CC[C@]4(C)[C@H]3CC[C@]12C)OS(=O)(=O)O.C[C@H](O)C(=O)O.C[C@H](O)C(=O)O [Crystallized Squalamine] |  | change in the percentage of the lactylamide impurity when heat stressed ([1]; 70° C. for three days vs unstressed): no significant increase; 24 S Isomer [1, 4]: 0.714%; Lacrylamide [1, 4]: 0.087%; Squalamine [1, 4]: 99.168%; 24 S Isomer ([1]; Unstressed): 0.715%; Lacrylamide ([1]; Unstressed): 0.070%; Squalamine ([1]; Unstressed): 99.187%
87.3 | 81.5 | 62.9 | 94.4 | squalamine diacetate | 1/8 | 
80.9 | 80.6 | 70.9 | 91.8 | squalamine dilactate |  | stability under increasingly severe conditions ([3]; four weeks at 40-80° C., compared to the diacetate and digluconate salts): surprisingly stable
 |  |  |  | squalamine ditrifluoroacetate | 1/8 | mouse tail fell off (mice affected/group) ([2]; mouse, in vivo): 1/8

Compound | % purity of main peak, squalamine, based on total integrated area ([3]; 4w 40° C.) [%] | % purity of main peak, squalamine, based on total integrated area ([3]; 4w 60° C.) [%] | % purity of main peak, squalamine, based on total integrated area ([3]; 4w 80° C.) [%] | % purity of main peak, squalamine, based on total integrated area ([3]; T = 0) [%] | necrotic mouse tail (mice affected/group) ([2]; mouse, in vivo) | also measured
squalamine digluconate | 72.6 | 60.7 | 4.9 | 87.8 |  | tolerance of treatment (swelling, bruising, irritation of tails) ([2]; 2.5 mg/kg/day i.v. tail vein for five days, 0.25 mg/mL solutions in D5W, compared with squalamine diacetate and ditrifluoroacetate): tolerated slightly better
